Data as given in patent US7994209B2, “3-phenoxymethylpyrrolidine compounds” (Theravance, Inc., priority 2009, dated 2011).

Tests used:
hSERT = hSERT (Homo sapiens, UniProt P31645); test: fluorescence-based serotonin reuptake inhibition assay (Tsuruda et al. 2010; data indicated by an asterisk); type: cell-based; parameters: expressed in transfected cells; host or cells: HEK-293; conditions: fluorescence-based assay (values with asterisk), read-out: SERT pIC50 (converted)
hNET = hNET (Homo sapiens, UniProt P23975); test: fluorescence-based norepinephrine reuptake inhibition assay (Tsuruda et al. 2010; data indicated by an asterisk); type: cell-based; parameters: expressed in transfected cells; host or cells: HEK-293; conditions: norepinephrine reuptake inhibition, fluorescence-based assay (values with asterisk); read-out: NET pIC50 (converted)
hNET, sequence (P23975 whole entry): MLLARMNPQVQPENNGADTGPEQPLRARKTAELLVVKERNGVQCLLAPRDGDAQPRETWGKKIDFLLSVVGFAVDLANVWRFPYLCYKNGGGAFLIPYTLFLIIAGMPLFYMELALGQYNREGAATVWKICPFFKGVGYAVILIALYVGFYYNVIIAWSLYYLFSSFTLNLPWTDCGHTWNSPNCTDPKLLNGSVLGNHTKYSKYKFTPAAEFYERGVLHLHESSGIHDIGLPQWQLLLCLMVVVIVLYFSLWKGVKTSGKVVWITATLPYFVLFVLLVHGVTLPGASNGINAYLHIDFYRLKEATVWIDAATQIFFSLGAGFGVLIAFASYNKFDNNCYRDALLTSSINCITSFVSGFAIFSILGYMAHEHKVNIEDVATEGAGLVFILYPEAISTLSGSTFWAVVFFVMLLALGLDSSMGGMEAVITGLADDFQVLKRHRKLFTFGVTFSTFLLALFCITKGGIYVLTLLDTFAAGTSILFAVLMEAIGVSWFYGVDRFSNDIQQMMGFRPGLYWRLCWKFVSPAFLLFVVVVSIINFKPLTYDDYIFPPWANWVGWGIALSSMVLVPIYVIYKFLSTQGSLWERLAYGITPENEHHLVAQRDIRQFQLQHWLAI

hSERT, sequence (P31645 whole entry): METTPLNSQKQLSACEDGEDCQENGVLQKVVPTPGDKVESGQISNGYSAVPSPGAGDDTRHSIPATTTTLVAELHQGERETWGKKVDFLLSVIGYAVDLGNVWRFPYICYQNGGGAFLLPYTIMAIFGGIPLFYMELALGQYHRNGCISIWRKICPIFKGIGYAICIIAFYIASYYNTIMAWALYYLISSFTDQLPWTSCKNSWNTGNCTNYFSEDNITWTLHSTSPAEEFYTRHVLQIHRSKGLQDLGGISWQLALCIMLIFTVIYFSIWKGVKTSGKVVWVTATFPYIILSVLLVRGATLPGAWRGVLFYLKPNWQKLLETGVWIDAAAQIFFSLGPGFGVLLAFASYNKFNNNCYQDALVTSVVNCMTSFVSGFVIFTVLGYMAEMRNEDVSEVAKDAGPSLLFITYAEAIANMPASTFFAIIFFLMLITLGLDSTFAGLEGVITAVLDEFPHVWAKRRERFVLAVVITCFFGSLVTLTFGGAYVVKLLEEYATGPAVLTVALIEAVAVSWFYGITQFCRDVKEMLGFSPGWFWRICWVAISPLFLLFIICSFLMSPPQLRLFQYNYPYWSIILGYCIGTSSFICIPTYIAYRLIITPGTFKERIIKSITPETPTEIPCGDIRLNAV

Row | Compound | IC50 (hSERT) [nM] | IC50 (hNET) [nM]
1 | CC[C@H](Oc1ccc(C)c(F)c1F)[C@H]1CCNC1 [Example 2-51, (S)-3-[(S)-1-(2,3-Difluoro-4-methylphenoxy)propyl]pyrrolidine] | ≤ 10 | ≤ 10
2 | CC[C@H](Oc1cccc(Cl)c1C)[C@H]1CCNC1 [Example 2-64, (S)-3-[(S)-1-(3-Chloro-2-methylphenoxy)propyl]pyrrolidine] | ≤ 10 | ≤ 10
3 | CC[C@@H](Oc1cccc(Cl)c1C)[C@H]1CCNC1 [Example 2-65, (S)-3-[(R)-1-(3-Chloro-2-methylphenoxy)propyl]pyrrolidine] | ≤ 10 | ≤ 10
4 | CC[C@@H](Oc1cccc(Cl)c1C(F)(F)F)[C@H]1CCNC1 [Example 2-74, (S)-3-[(R)-1-(3-Chloro-2-trifluoromethylphenoxy)propyl]pyrrolidine] | ≤ 10 | ≤ 100
5 | CCC[C@@H](Oc1cc(F)cc(Cl)c1)[C@H]1CCNC1 [Example 4-10, (S)-3-[(R)-1-(3-Chloro-5-fluorophenoxy)butyl]pyrrolidine] | ≤ 100 | ≤ 10
6 | CCC[C@H](Oc1cc(F)cc(Cl)c1)[C@H]1CCNC1 [Example 4-11, (S)-3-[(S)-1-(3-Chloro-5-fluorophenoxy)butyl]pyrrolidine] | ≤ 100 | ≤ 10
7 | CCC[C@@H](Oc1ccc(Cl)c(Cl)c1)[C@@H]1CCNC1 [Example 4-14, (R)-3-[(R)-1-(3,4-Dichlorophenoxy)butyl]pyrrolidine] | ≤ 10 | ≤ 100
8 | CCC[C@@H](Oc1ccc(Cl)c(C)c1)[C@H]1CCNC1 [Example 4-15, (S)-3-[(R)-1-(4-Chloro-3-methylphenoxy)butyl]pyrrolidine] | ≤ 10 | ≤ 100
9 | CCC[C@H](Oc1ccc(Cl)c(C)c1)[C@H]1CCNC1 [Example 4-16, (S)-3-[(S)-1-(4-Chloro-3-methylphenoxy)butyl]pyrrolidine] | ≤ 10 | ≤ 10
10 | CCC[C@@H](Oc1ccc(Cl)c(F)c1)[C@H]1CCNC1 [Example 4-17, (S)-3-[(R)-1-(4-Chloro-3-fluorophenoxy)butyl]pyrrolidine] | ≤ 10 | ≤ 100
11 | CCC[C@@H](Oc1c(Cl)ccc(Cl)c1Cl)[C@H]1CCNC1 [Example 4-26, (S)-3-[(R)-1-(2,3,6-Trichlorophenoxy)butyl]pyrrolidine] | ≤ 10 | ≤ 10
12 | CCC[C@H](Oc1ccc(Cl)c(F)c1Cl)[C@H]1CCNC1 [Example 4-39, (S)-3-[(S)-1-(2,4-Dichloro-3-fluorophenoxy)butyl]pyrrolidine] | ≤ 10 | ≤ 10
13 | CCC[C@H](Oc1c(F)cc(Cl)cc1Cl)[C@H]1CCNC1 [Example 4-40, (S)-3-[(S)-1-(2,4-Dichloro-6-fluorophenoxy)butyl]pyrrolidine] | ≤ 10 | ≤ 10
14 | CCC[C@H](Oc1c(C)cc(Cl)cc1Cl)[C@H]1CCNC1 [Example 4-41, (S)-3-[(S)-1-(2,4-Dichloro-6-methylphenoxy)butyl]pyrrolidine] | ≤ 10 | ≤ 10
15 | CCC[C@@H](Oc1c(F)ccc(OC)c1Cl)[C@H]1CCNC1 [Example 4-42, (S)-3-[(R)-1-(2-Chloro-6-fluoro-3-methoxyphenoxy)butyl]pyrrolidine] | ≤ 10 | ≤ 10
16 | CCC[C@@H](Oc1cccc(F)c1F)[C@H]1CCNC1 [Example 4-44, (S)-3-[(R)-1-(2,3-Difluorophenoxy)butyl]pyrrolidine] | ≤ 100 | ≤ 10
17 | CCC[C@H](Oc1cccc(F)c1F)[C@H]1CCNC1 [Example 4-45, (S)-3-[(S)-1-(2,3-Difluorophenoxy)butyl]pyrrolidine] | ≤ 100 | ≤ 10
18 | CCC[C@@H](Oc1cccc(Cl)c1F)[C@H]1CCNC1 [Example 4-46, (S)-3-[(R)-1-(3-Chloro-2-fluorophenoxy)butyl]pyrrolidine] | ≤ 100 | ≤ 10
19 | CCC[C@@H](Oc1cccc(Cl)c1F)[C@@H]1CCNC1 [Example 4-47, (R)-3-[(R)-1-(3-Chloro-2-fluorophenoxy)butyl]pyrrolidine] | ≤ 100 | ≤ 10
20 | CCC[C@H](Oc1cccc(Cl)c1F)[C@H]1CCNC1 [Example 4-48, (S)-3-[(S)-1-(3-Chloro-2-fluorophenoxy)butyl]pyrrolidine] | ≤ 100 | ≤ 10
21 | CCC[C@@H](Oc1ccc(F)c(F)c1F)[C@H]1CCNC1 [Example 4-49, (S)-3-[(R)-1-(2,3,4-Trifluorophenoxy)butyl]pyrrolidine] | ≤ 10 | ≤ 100
22 | CCC[C@@H](Oc1ccc(Cl)c(Cl)c1F)[C@H]1CCNC1 [Example 4-51, (S)-3-[(R)-1-(3,4-Dichloro-2-fluorophenoxy)butyl]pyrrolidine] | ≤ 10 | ≤ 10

Row | Compound | IC50 (hSERT) [nM] | IC50 (hNET) [nM]
23 | CCC[C@H](Oc1ccc(Cl)c(Cl)c1F)[C@H]1CCNC1 [Example 4-52, (S)-3-[(S)-1-(3,4-Dichloro-2-fluorophenoxy)butyl]pyrrolidine] | ≤ 10 | ≤ 10
24 | CCC[C@H](Oc1c(F)cc(Cl)cc1F)[C@H]1CCNC1 [Example 4-53, (S)-3-[(S)-1-(4-Chloro-2,6-difluorophenoxy)butyl]pyrrolidine] | ≤ 10 | ≤ 10
25 | CCC[C@@H](Oc1ccc(Cl)cc1C)[C@@H]1CCNC1 [Example 4-61, (R)-3-[(R)-1-(4-Chloro-2-methylphenoxy)butyl]pyrrolidine] | ≤ 100 | ≤ 100
26 | CCC[C@H](Oc1cccc(C)c1C)[C@H]1CCNC1 [Example 4-62, (S)-3-[(S)-1-(2,3-Dimethylphenoxy)butyl]pyrrolidine] | ≤ 10 | ≤ 10
27 | CCC[C@H](Oc1ccc(Cl)cc1OC)[C@H]1CCNC1 [Example 4-72, (S)-3-[(S)-1-(4-Chloro-2-methoxyphenoxy)butyl]pyrrolidine] | ≤ 10 | ≤ 10
28 | CC(C)[C@H](Oc1cccc(Cl)c1F)[C@H]1CCNC1 [Example 6-3, (S)-3-[(S)-1-(3-Chloro-2-fluorophenoxy)-2-methylpropyl]pyrrolidine] | ≤ 100 | ≤ 10
29 | CC(C)[C@@H](Oc1cccc(Cl)c1F)[C@H]1CCNC1 [Example 6-4, (S)-3-[(R)-1-(3-Chloro-2-fluorophenoxy)-2-methylpropyl]pyrrolidine] | ≤ 10 | ≤ 10
30 | CC(C)[C@H](Oc1c(F)cc(Cl)cc1F)[C@H]1CCNC1 [Example 6-5, (S)-3-[(S)-1-(4-Chloro-2,6-difluorophenoxy)-2-methylpropyl]pyrrolidine] | ≤ 10 | ≤ 10
31 | CC(C)[C@@H](Oc1c(F)cc(Cl)cc1F)[C@@H]1CCNC1 [Example 6-6, (R)-3-[(R)-1-(4-Chloro-2,6-difluorophenoxy)-2-methylpropyl]pyrrolidine] | ≤ 100 | ≤ 100
32 | CC(C)[C@@H](Oc1ccc(Cl)c(Cl)c1F)[C@H]1CCNC1 [Example 6-8, (S)-3-[(R)-1-(3,4-Dichloro-2-fluorophenoxy)-2-methylpropyl]pyrrolidine] | ≤ 10 | ≤ 100
33 | CC(C)[C@@H](Oc1ccc(Cl)c(Cl)c1F)[C@@H]1CCNC1 [Example 6-9, (R)-3-[(R)-1-(3,4-Dichloro-2-fluorophenoxy)-2-methylpropyl]pyrrolidine] | ≤ 10 | ≤ 100
34 | CC(C)[C@H](Oc1cccc(Cl)c1Cl)[C@@H]1CCNC1 [Example 6-16, (R)-3-[(S)-1-(2,3-Dichlorophenoxy)-2-methylpropyl]pyrrolidine] | ≤ 100 | ≤ 100
35 | CC(C)[C@H](Oc1cccc(F)c1Cl)[C@@H]1CCNC1 [Example 6-20, (R)-3-[(S)-1-(2-Chloro-3-fluorophenoxy)-2-methylpropyl]pyrrolidine] | ≤ 100 | ≤ 100
36 | CC(C)[C@@H](Oc1ccc(Cl)cc1Cl)[C@@H]1CCNC1 [Example 6-23, (R)-3-[(R)-1-(2,4-Dichlorophenoxy)-2-methylpropyl]pyrrolidine] | ≤ 10 | ≤ 100
37 | CC(C)[C@H](Oc1ccc(C(F)(F)F)cc1Cl)[C@H]1CCNC1 [Example 6-25, (S)-3-[(S)-1-(2-Chloro-4-trifluoromethylphenoxy)-2-methylpropyl]pyrrolidine] | ≤ 10 | ≤ 100
38 | CC(C)[C@@H](Oc1cc(Cl)ccc1Cl)[C@H]1CCNC1 [Example 6-26, (S)-3-[(R)-1-(2,5-Dichlorophenoxy)-2-methylpropyl]pyrrolidine] | ≤ 100 | ≤ 100
39 | CC(C)[C@@H](Oc1c(F)cc(Cl)cc1Cl)[C@H]1CCNC1 [Example 6-31, (S)-3-[(R)-1-(2,4-Dichloro-6-fluorophenoxy)-2-methylpropyl]pyrrolidine] | ≤ 10 | ≤ 100
40 | CC(C)[C@H](Oc1c(F)cc(Cl)cc1Cl)[C@@H]1CCNC1 [Example 6-32, (R)-3-[(S)-1-(2,4-Dichloro-6-fluorophenoxy)-2-methylpropyl]pyrrolidine] | ≤ 100 | ≤ 316
41 | Cc1cc(Cl)cc(Cl)c1O[C@@H](C(C)C)[C@H]1CCNC1 [Example 6-33, (S)-3-[(S)-1-(2,4-Dichloro-6-methylphenoxy)-2-methylpropyl]pyrrolidine] | ≤ 10 | ≤ 10
42 | COc1ccc(F)c(O[C@H](C(C)C)[C@@H]2CCNC2)c1Cl [Example 6-37, (R)-3-[(R)-1-(2-Chloro-6-fluoro-3-methoxyphenoxy)-2-methylpropyl]pyrrolidine] | ≤ 10 | ≤ 10
43 | Cc1c(Cl)cccc1O[C@H](C(C)C)[C@@H]1CCNC1 [Example 6-41, (R)-3-[(R)-1-(3-Chloro-2-methylphenoxy)-2-methylpropyl]pyrrolidine] | ≤ 10 | ≤ 100
44 | Cc1c(Cl)cccc1O[C@@H](C(C)C)[C@@H]1CCNC1 [Example 6-42, (R)-3-[(S)-1-(3-Chloro-2-methylphenoxy)-2-methylpropyl]pyrrolidine] | ≤ 10 | ≤ 100
